Assay results as given in patent US20240352022A1, “GROUP OF IMB-C5 SERIES COMPOUNDS HAVING ANTI-CORONAVIRUS ACTIVITY AND APPLICATION THEREOF” (priority 2021, published 2024).

Test system: SARS-COV-2 Beta variant
Test: microbe, parasite or virus in culture
Assay type: cell-based, Human coronavirus SARS-COV-2 Beta variant
Settings: for IC50: Severe acute respiratory syndrome coronavirus 2, Vero C1008

In the case of `COc1cccc(Cn2c(NCCO)nc3c2c(=O)n(C)c(=O)n3C)c1` [IMB-C5], the “inhibitory activity against SARS-COV-2 (in words)” value is reported as “had an inhibitory activity against the SARS-COV-2 Beta variant” and the IC50 is reported as 34.8 µM.

Work on `CCC(CC)COC(=O)[C@H](C)N[P@](=O)(OC[C@H]1O[C@@](C#N)(c2ccc3c(N)ncnn23)[C@H](O)[C@@H]1O)Oc1ccccc1` [Remdesivir, reference compound] yielded an IC50 of 0.73 µM.
